The values below come from patent publication US20040253665A1, “Novel peptide-producing enzyme, microbe producing the enzyme and method for dipeptide synthesis using them” (AJINOMOTO CO., INC., priority 2002, published 2004).

In experiment [1] the test system is peptide-producing enzyme (Mono S fraction) from Empedobacter brevis strain FERM BP-8113. Briefly: Enzyme substrate specificity (1)-(10), (13), (14). The experiment is classed as biochemical. The conditions noted are these: L-amino acid 150 mM, pH 9.0, 25° C., 3 hours. The method in brief: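 Mono S-purified peptide-forming enzyme from Empedobacter brevis FERM BP-8113, given L-amino acid esters (hydrochlorides) or amides as carboxy component with amino acids, C-protected amino acids, methylamine, β-amino acids or peptides as amine component. Dipeptide/oligopeptide product quantified; Tween-80 0.1% added with L-Trp-OMe.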

Experiment [2] relates to enzyme (SP-Sepharose HP fraction) derived from Sphingobacterium sp. strain FERM BP-8124. The experiment is classed as biochemical. Further details: key to Produced peptide (mM): +: those peptides for which production was confirmed but which were unable to be quantified due to the absence of a standard; a trace amount. The conditions noted are these: 0.33 units enzyme, pH 9.0, 25° C., 1.5 hours. The protocol: Substrate specificity was examined for enzyme derived from Sphingobacterium sp. strain FERM BP-8124 (Depositary institution: National Institute for Advanced Industrial Science and Technology, International Patent Organism Depositary, Address of depositary institution: Central. 6, 1-1-1 Higashi, Tsukuba City, Ibaraki Prefecture, Japan, International deposit date: Jul. 22, 2002). 100 μl of 100 mM borate buffer (pH 9.0) containing the various carboxy components at a final concentration of 100 mM and the various amine components at a final concentration of 150 mM shown in Tables 15-1 to 15-4, the SP-Sepharose HP fraction enzyme purified in Example 22 (addition of 0.33 units in the reaction liquid) and 10 mM EDTA were allowed to react at 25° C. for 1.5 hours. […] In addition, hydrochlorides were used for all carboxy components.
Substrate specificity with respect to oligopeptide production was examined for enzyme derived from Sphingobacterium sp. strain FERM BP-8124 (Depositary institution: National Institute for Advanced Industrial Science and Technology,.International Patent Organism Depositary, Address of depositary institution: Chuo Dai-6, 1-1 Higashi 1-Chome, Tsukuba-shi, Ibaraki-ken, Japan, International deposit date: Jul. 22, 2002). A 100 μl aliquot of 100 mM borate buffer (pH 9.0) containing the various carboxy components at a final concentration of 100 mM and the various amine components at a final concentration of 150 mM shown in Table 16, the SP-Sepharose HP fraction enzyme purified in Example 22 (addition of 0.33 units in the reaction liquid) and 10 mM EDTA were allowed to react for 1.5 hours at 25° C. Furthermore, hydrochloride salts were used for all carboxy components.

Experiment [3] deals with Empedobacter brevis strain FERM BP-8113 microbial cells. The experiment can be described thus: Production of peptide using microbial cells of Empedobacter brevis. The experiment is classed as cell-based. The conditions noted are these: microbial cell suspension 100 g/L mixed 1:1 with 200 mM carboxy component and 400 mM amino acid, pH 9.0, 10 mM EDTA, 18° C., 2 hours. On the procedure:
A 50 mL medium (pH 6.2) containing 5 grams (hereinafter, “g”) of glucose, 5 g of ammonium sulfate, 1 g of monopotassium phosphate, 3 g of dipotassium phosphate, 0.5 g of magnesium sulfate, 10 g of yeast extract and 10 g of peptone in 1 liter (hereinafter, “L”) was transferred to a 500 mL Sakaguchi flask and sterilized at 115° C. for 15 minutes. This medium,was then inoculated with one loopful of the culture broth of Empedobacter brevis strain FERM BP-8113 (Depositary institution: National Institute for Advanced Industrial Science and Technology, International Patent Organism Depositary, Address of depositary institution: Chuo Dai-6, 1-1 Higashi 1-Chome, Tsukuba-shi, Ibaraki-ken, Japan, International deposit transfer date: Jul. 8, 2002) that had been cultured at 30° C. for 16 hours in the same medium, followed by shake culturing at 30° C. for 16 hours and 120 strokes/min.

The subject of experiment [4] is peptide-producing enzyme (Mono S fraction) from Empedobacter brevis strain FERM BP-8113. The experiment can be described thus: Enzyme substrate specificity (1)-(10), (13), (14). The format is biochemical. Set-up: key: +: those peptides for which production was confirmed but which were unable to be quantified due to the absence of a standard; a trace amount. From the text:
Ester specificity was examined in the case of using L-amino acid ester for the carboxy component. […] The amounts of L-Ala-L-Gln produced in this reaction are shown in Table 4 (HCl represents hydrochloride in Table 4). Peptide production was examined in the case of using L-alanine methyl ester for the carboxy component and using various L-amino acids for the amine component. […] (The “+” mark indicates those peptides for which production was confirmed but which were unable to be quantified due to the absence of a standard, while “tr” indicates a trace amount.) Peptide production was examined in the case of using various types of L-amino acid methyl esters for the carboxy component and using L-glutamine for the amine component. […] Peptide production was examined in the case of using various L-amino acid methyl esters for the carboxy component and various L-amino acids for the amine component. […] (The “tr” indicates a trace amount.) Furthermore, Tween-80 was added to the reaction system to a final concentration of 0.1% in the case of using L-Trp-OMe. (The “+” mark indicates those peptides for which production was confirmed but which were unable to be quantified due to the absence of a standard.) […] (The “tr” indicates a trace amount.) Peptide production was examined using various L-amino acid amides for the carboxy component, and various L-amino acids for the amine component. […] Peptide production was examined in the case of using various L-alanine methyl esters for the carboxy component and C-protected L-amino acids for the amine component. […] Peptide production was examined in the case of using various amino acid methyl esters for the carboxy component and methylamine for the amine component. […] Peptide production was examined in the case of using β-amino acid ester for the carboxy component or β-amino acid for the amine component. […] (The “tr” indicates a trace amount.) Oligopeptide production was examined in the case of using L-amino acid ester for the carboxy component and peptide for the amine component. […] Substrate specificity was additionally assessed using the same enzyme fraction as that used in Example 5. […] (A “+” mark indicates those for which production was confirmed but which were unable to be quantified due to the absence of a standard, while “tr” indicates a trace amount). Substrate specificity with respect to oligopeptide production was assessed using the same enzyme fraction as Example 26. […] (A “+” mark indicates those for which production was confirmed but which were unable to be quantified due to the absence of a standard, while “tr” indicates a trace amount). It should be noted that hydrochlorides were used for all of the carboxy components.

The mark [5] stands for this setting: L-amino acid methyl ester hydrochloride 100 mM.
Where [6] appears, read: Table 15-3, carboxy component 100 mM, amine component 150 mM.
[7] abbreviates: Table 15-1, carboxy component 100 mM, amine component 150 mM.
[8] abbreviates: 100 mM L-alanine methyl ester hydrochloride, L-amino acid 150 mM, pH 9.0, 25° C., 3 hours.
[9] abbreviates: 100 mM L-alanine methyl ester hydrochloride.
Where [10] appears, read: L-amino acid amide hydrochloride 100 mM as carboxy component.
Setting [11] is: Table 15-4, amides or methylamine as components, 100 mM / 150 mM.
Where [12] appears, read: L-amino acid methyl ester hydrochloride 100 mM, 150 mM L-glutamine, pH 9.0, 25° C., 3 hours.

Like-named read-outs stand apart in the source and are kept apart here. Non-standard residues stand in square brackets, D forms with d. Residues, ends and D or L forms follow the SMILES beside them. *: point of attachment. 2Nal = N[C@@H](Cc1ccc2ccccc2c1)C(=O)O; tBu = CC(C)(C)*

In the case of `NCC(=O)N[C@@H](Cc1cnc[nH]1)C(=O)O` [Gly-L-His] (H-Gly-His-OH), the “Produced peptide” value was determined as 31.6 mM in experiment [1] (setting [5]), 36.2 mM in experiment [2] (setting [6]) and 22.1 mM in experiment [3].
The matching figures for `N[C@@H](CO)C(=O)N[C@@H](CO)C(=O)O` [L-Ser-L-Ser] (H-Ser-Ser-OH): 38.0 mM, 9.9 mM and 29.0 mM.
Consider `C[C@H](N)C(=O)N1CCC[C@H]1C(=O)O` [L-Ala-L-Pro] (H-Ala-Pro-OH), for which the “Produced peptide” value in experiment [2] (setting [7]) was found to be 1.5 mM. In addition, the “Produced peptide (mM)” value in experiment [4] (setting [8]) is recorded as “tr”.
For `CN[C@@H](C)C(=O)N[C@@H](Cc1ccccc1)C(=O)O` [H-N-Me-Ala-Phe-OH], the “Produced peptide (mM)” value in experiment [4] (carboxy component 100 mM, amine component 150 mM, 0.1 unit enzyme, 25° C., reaction time 3 hr) is given as “tr”.
On to `NC(=O)CC[C@H](NC(=O)[C@@H](N)Cc1ccc2ccccc2c1)C(=O)O` [H-2-Nal-H-Gln-OH] (H-[2Nal]-Gln-OH), for which the “Produced peptide (mM)” value in experiment [4] (carboxy component 40 mM, amine component 40 mM, 0.1 unit enzyme, 25° C., reaction time 3 hr) is “tr”.
`CSCC[C@H](NC(=O)[C@H](C)N)C(=O)O` [L-Ala-L-Met] (H-Ala-Met-OH): the “Produced peptide” value was 83.3 mM in experiment [1] (setting [9]), 3.4 mM in experiment [1] (setting [10]), 86.9 mM in experiment [2] (setting [7]) and 68.3 mM in experiment [3]. Moreover, the “Produced peptide (mM)” value in experiment [2] (setting [11]) was “tr”.
Consider `CC(C)C[C@H](NC(=O)[C@@H](N)[C@@H](C)O)C(=O)O` [L-Thr-L-Leu] (H-Thr-Leu-OH), for which the “Produced peptide” value in experiment [1] (setting [5]) stood at 28.4 mM; in experiment [2] (setting [6]), 15.3 mM; in experiment [3] it was 23.0 mM.
Regarding `NC(=O)CC[C@H](NC(=O)[C@@H](N)CS)C(=O)O` [L-CySH-L-Gln] (H-Cys-Gln-OH), the “Produced peptide (mM)” value in experiment [4] (setting [12]) is “+”.
Turning to `CC(C)C[C@H](NC(=O)[C@H](C)N)C(=O)O` [L-Ala-L-Leu] (H-Ala-Leu-OH), the “Produced peptide” value is 45.3 mM in experiment [1] (setting [9]), 33.0 mM in experiment [2] (setting [7]) and 38.2 mM in experiment [3].
`CC(C)(C)OC[C@H](N)C(=O)N[C@@H](CCC(N)=O)C(=O)O` [H-Ser(tBu)-Gln-OH] (H-Ser(tBu)-Gln-OH): the “Produced peptide (mM)” value in experiment [4] (carboxy component 100 mM, amine component 150 mM, 0.1 unit enzyme, 25° C., reaction time 2 hr) is “tr”.
Consider `NC(=O)CC[C@H](NC(=O)[C@@H](N)CCC(=O)O)C(=O)O` [α-L-Glu-L-Gln] (H-Glu-Gln-OH), for which the “Produced peptide (mM)” value in experiment [4] (setting [12]) is listed as “+”.
For `CSCC[C@H](NC(=O)[C@@H](N)C(C)C)C(=O)O` [L-Val-L-Met] (H-Val-Met-OH), the “Produced peptide” value in experiment [1] (setting [5]) was 10.3 mM; in experiment [2] (setting [6]) it was 6.8 mM; in experiment [3], 10.5 mM.
Turning to `NC(=O)CC[C@H](NC(=O)[C@@H](N)Cc1cnc[nH]1)C(=O)O` [L-His-L-Gln] (H-His-Gln-OH), the “Produced peptide (mM)” value in experiment [4] (setting [12]) is “+”.
For `C[C@H](N)C(=O)N[C@@H](CO)C(=O)O` [L-Ala-L-Ser] (H-Ala-Ser-OH), the figures for the “Produced peptide” value in experiment [1] (setting [9]), in experiment [2] (setting [7]) and in experiment [3] were 62.5 mM, 43.8 mM and 51.3 mM, respectively.
Consider `C[C@H](N)C(=O)N[C@@H](Cc1cnc[nH]1)C(=O)O` [L-Ala-L-His] (H-Ala-His-OH), for which the “Produced peptide” value in experiment [1] (setting [9]) was 66.9 mM; in experiment [1] (setting [10]), 3.9 mM; in experiment [2] (setting [7]), 73.6 mM; in experiment [3], 52.1 mM. The “Produced peptide (mM)” value in experiment [2] (setting [11]) is “tr”.
Consider `NC(=O)CC[C@H](NC(=O)[C@@H](N)CC(N)=O)C(=O)O` [L-Asn-L-Gln] (H-Asn-Gln-OH), for which, in experiment [4] (setting [12]), the “Produced peptide (mM)” value is “+”.
Consider `C[C@H](NC(=O)CCN)C(=O)O` [β-Ala-L-α-Ala], for which the “Produced peptide (mM)” value in experiment [4] (β-amino acid ester as carboxy component or β-amino acid as amine component, 100 mM / 150 mM, pH 9.0, 25° C., 3 hours) is given as “tr”.
With `CC[C@H](C)[C@H](N)C(=O)N[C@@H](CCSC)C(=O)O` [L-Ile-L-Met] (H-Ile-Met-OH), the “Produced peptide” value in experiment [1] (setting [5]) was determined as 10.0 mM; in experiment [2] (setting [6]), 5.1 mM; in experiment [3] it was 8.3 mM.
For the compound `CC(C)C[C@H](N)C(=O)N[C@@H](CCC(N)=O)C(=O)O` [L-Leu-L-Gln] (H-Leu-Gln-OH), the “Produced peptide (mM)” value in experiment [4] (setting [12]) is “+”.
Take `NC(=O)CC[C@H](NC(=O)[C@@H](N)CC(=O)O)C(=O)O` [α-L-Asp-L-Gln] (H-Asp-Gln-OH): in experiment [2] (Table 15-2, carboxy component 100 mM, L-Gln 150 mM), the “Produced peptide” value worked out at 0.05 mM. In experiment [4] (setting [12]), the “Produced peptide (mM)” value is “tr”.
Regarding `C[C@H](N)C(=O)N[C@@H](CCCN=C(N)N)C(=O)O` [L-Ala-L-Arg] (H-Ala-Arg-OH), the results for the “Produced peptide” value in experiment [1] (setting [9]), in experiment [2] (setting [7]) and in experiment [3] were 88.0 mM, 72.2 mM and 72.1 mM, respectively.
For `CSCC[C@H](N)C(=O)N[C@@H](Cc1ccccc1)C(=O)O` [L-Met-L-Phe] (H-Met-Phe-OH), the results for the “Produced peptide” value in experiment [1] (setting [5]), in experiment [2] (setting [6]) and in experiment [3] were 34.0 mM, 8.9 mM and 28.5 mM, respectively.
Take `C[C@H](N)C(=O)N[C@@H](CS)C(=O)O` [L-Ala-L-CySH] (H-Ala-Cys-OH): the “Produced peptide (mM)” value in experiment [2] (setting [7]) and in experiment [4] (setting [8]) was “+” in each case.
As to `NC(=O)CC[C@H](NC(=O)[C@@H](N)Cc1ccc(Cl)cc1)C(=O)O` [H-Cl-F-Phe-H-Gln-OH], the “Produced peptide (mM)” value in experiment [4] (carboxy component 25 mM, amine component 50 mM, 0.1 unit enzyme, 25° C., reaction time 3 hr) is recorded as “tr”.
